Values belong to the compound of their own block, whether it stands above or below them.
Experiments:
[1] = molecular target: Mitogen-activated protein kinase 10 (Homo sapiens, UniProt P53779); assay: JNK3(MP10LGF2) Takeda global kinase panel
[2] = molecular target: Dual specificity mitogen-activated protein kinase kinase 6 (Homo sapiens, UniProt P52564); assay: MKK6 [MAP2K6(M2K6LGF1)] Takeda global kinase panel
[3] = molecular target: Serine/threonine-protein kinase BRSK1 (Homo sapiens, UniProt Q8TDC3); assay: BRSK1(BRS1LGA1) Takeda global kinase panel
[4] = molecular target: Serine/threonine-protein kinase TAO3 (Homo sapiens, UniProt Q9H2K8); assay: TAO3(TAO3LGY1) Takeda global kinase panel
[5] = molecular target: cGMP-dependent protein kinase 2 (Homo sapiens, UniProt Q13237); assay: PKG2(PRG2LHY1) Takeda global kinase panel
[6] = molecular target: Platelet-derived growth factor receptor beta (Homo sapiens, UniProt P09619); assay: PDGFRbeta(PDGBIHC1) Takeda global kinase panel
[7] = molecular target: Delta-type opioid receptor (Homo sapiens) (UniProt P41143); conditions: Compound concentration 10.0 uM
[8] = molecular target: Myosin light chain kinase, smooth muscle (Homo sapiens, UniProt Q15746); assay: smMLCK(MYL1LGF1) Takeda global kinase panel
[9] = molecular target: Tyrosine-protein kinase Blk (Homo sapiens, UniProt P51451); assay: BLK(BLK1CGF1) Takeda global kinase panel
Sequence of Tyrosine-protein kinase Blk (P51451 whole entry, canonical isoform): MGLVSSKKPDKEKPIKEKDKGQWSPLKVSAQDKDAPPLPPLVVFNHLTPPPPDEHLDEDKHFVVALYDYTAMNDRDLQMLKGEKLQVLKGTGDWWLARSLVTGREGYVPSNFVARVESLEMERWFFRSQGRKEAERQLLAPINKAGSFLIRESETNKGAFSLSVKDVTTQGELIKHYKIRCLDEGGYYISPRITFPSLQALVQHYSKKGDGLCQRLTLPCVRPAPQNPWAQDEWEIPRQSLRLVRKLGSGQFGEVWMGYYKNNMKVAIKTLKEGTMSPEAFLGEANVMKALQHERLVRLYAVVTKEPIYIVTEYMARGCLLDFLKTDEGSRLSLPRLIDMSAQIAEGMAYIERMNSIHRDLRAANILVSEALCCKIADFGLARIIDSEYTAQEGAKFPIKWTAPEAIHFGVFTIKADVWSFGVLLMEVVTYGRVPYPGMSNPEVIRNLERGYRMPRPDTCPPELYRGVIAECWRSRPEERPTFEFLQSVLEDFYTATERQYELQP

[10] = molecular target: Casein kinase I isoform gamma-3 (Homo sapiens, UniProt Q9Y6M4); assay: CK1gamma3(C1G3LGI5) Takeda global kinase panel
SRSF protein kinase 3 = SRSF protein kinase 3 (Homo sapiens, UniProt Q9UPE1); assay: MSSK1(SRP3MHRL) Takeda global kinase panel
[11] = molecular target: Casein kinase I isoform epsilon (Homo sapiens, UniProt P49674); assay: CK1epsilon(CS1ELGI5) Takeda global kinase panel
Sequence of Casein kinase I isoform epsilon (P49674 whole entry, canonical isoform): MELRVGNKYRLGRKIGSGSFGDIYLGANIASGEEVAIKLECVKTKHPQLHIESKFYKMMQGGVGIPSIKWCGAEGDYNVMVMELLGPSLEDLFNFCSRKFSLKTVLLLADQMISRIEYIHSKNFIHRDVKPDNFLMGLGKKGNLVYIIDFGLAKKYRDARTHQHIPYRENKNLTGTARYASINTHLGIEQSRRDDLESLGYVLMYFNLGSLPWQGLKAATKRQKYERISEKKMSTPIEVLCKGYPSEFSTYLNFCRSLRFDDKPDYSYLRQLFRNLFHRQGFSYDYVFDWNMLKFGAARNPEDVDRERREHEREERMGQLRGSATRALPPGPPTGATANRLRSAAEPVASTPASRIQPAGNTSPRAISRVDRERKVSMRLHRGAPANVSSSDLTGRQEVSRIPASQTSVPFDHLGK

[12] = molecular target: Cyclin-dependent kinase 2 (Homo sapiens, UniProt P24941); assay: CDK2(CDK2CGS1) Takeda global kinase panel
[13] = molecular target: Muscarinic acetylcholine receptor M3 (Homo sapiens) (UniProt P20309); conditions: Compound concentration 10.0 uM
Sequence of Muscarinic acetylcholine receptor M3 (Homo sapiens) (P20309 whole entry, looked up): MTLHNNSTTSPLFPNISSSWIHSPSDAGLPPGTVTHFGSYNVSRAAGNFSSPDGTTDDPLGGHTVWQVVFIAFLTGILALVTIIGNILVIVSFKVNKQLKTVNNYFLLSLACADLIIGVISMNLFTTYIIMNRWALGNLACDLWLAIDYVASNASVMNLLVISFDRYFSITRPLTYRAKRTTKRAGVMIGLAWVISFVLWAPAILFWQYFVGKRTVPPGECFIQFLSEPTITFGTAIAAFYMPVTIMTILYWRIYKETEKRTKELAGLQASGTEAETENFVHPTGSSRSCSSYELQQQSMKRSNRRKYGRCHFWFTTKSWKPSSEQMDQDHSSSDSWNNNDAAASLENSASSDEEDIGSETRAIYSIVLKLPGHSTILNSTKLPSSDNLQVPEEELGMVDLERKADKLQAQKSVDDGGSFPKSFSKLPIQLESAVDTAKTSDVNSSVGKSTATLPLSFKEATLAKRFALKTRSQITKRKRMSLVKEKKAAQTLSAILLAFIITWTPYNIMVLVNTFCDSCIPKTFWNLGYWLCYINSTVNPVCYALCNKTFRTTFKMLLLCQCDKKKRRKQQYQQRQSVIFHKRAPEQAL

[14] = molecular target: Dual specificity protein kinase CLK4 (Homo sapiens, UniProt Q9HAZ1); assay: CLK4(CLK4IGF1) Takeda global kinase panel
[15] = molecular target: Serine/threonine-protein kinase TAO2 (Homo sapiens, UniProt Q9UL54); assay: TAO2(TAO2LGF1) Takeda global kinase panel
[16] = molecular target: Serine/threonine-protein kinase 4 (Homo sapiens, UniProt Q13043); assay: MST1(STK4LGF1) Takeda global kinase panel
[17] = molecular target: Adenosine receptor A1 (Homo sapiens) (UniProt P30542); conditions: Compound concentration 10.0 uM
[18] = molecular target: Bromodomain-containing protein 4 (Homo sapiens, UniProt O60885); assay: BRD4(BRD4LGRC) Takeda global kinase panel
[19] = molecular target: Histamine H3 receptor (Homo sapiens) (UniProt Q9Y5N1); conditions: Compound concentration 10.0 uM
[20] = molecular target: Fibroblast growth factor receptor 3 (Homo sapiens, UniProt P22607); assay: FGFR3(FGF3LGF1) Takeda global kinase panel
[21] = molecular target: TRAF2 and NCK-interacting protein kinase (Homo sapiens, UniProt Q9UKE5); assay: TNIK [ZC2(TNIKLGF1)] Takeda global kinase panel
[22] = molecular target: Serine/threonine-protein kinase TBK1 (Homo sapiens, UniProt Q9UHD2); assay: TBK1(TBK1CGF1) Takeda global kinase panel
[23] = molecular target: Calcium/calmodulin-dependent protein kinase type 1B (Homo sapiens, UniProt Q6P2M8); assay: CaMK1beta(PNCKLGRI) Takeda global kinase panel
[24] = molecular target: Dual specificity tyrosine-phosphorylation-regulated kinase 2 (Homo sapiens, UniProt Q92630); assay: DYRK2(DYR2LGY1) Takeda global kinase panel
[25] = molecular target: Tyrosine-protein kinase FRK (Homo sapiens, UniProt P42685); assay: FRK(FRK1LGF1) Takeda global kinase panel
Sequence of Tyrosine-protein kinase FRK (P42685 whole entry): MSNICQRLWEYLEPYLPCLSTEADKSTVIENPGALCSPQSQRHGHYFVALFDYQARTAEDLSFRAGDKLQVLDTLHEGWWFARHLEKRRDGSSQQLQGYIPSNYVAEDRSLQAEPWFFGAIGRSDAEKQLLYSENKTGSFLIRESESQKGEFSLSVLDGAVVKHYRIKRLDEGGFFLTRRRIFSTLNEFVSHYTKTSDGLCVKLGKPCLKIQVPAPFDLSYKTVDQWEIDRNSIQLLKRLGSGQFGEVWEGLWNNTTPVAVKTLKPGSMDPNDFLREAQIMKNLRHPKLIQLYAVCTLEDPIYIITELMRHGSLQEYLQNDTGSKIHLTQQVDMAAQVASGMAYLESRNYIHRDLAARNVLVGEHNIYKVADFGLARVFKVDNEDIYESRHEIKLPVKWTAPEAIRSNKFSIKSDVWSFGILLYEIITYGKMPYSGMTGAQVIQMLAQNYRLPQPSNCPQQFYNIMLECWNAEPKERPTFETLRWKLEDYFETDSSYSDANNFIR

[26] = molecular target: Cyclin-dependent kinase 11A (Homo sapiens, UniProt Q9UQ88); assay: CDK11A(C11ALGS1) Takeda global kinase panel
[27] = molecular target: Tyrosine-protein kinase HCK (Homo sapiens, UniProt P08631); assay: HCK(HCK1LGF1) Takeda global kinase panel
[28] = molecular target: Serine/threonine-protein kinase Chk2 (Homo sapiens, UniProt O96017); assay: CHK2(CHE2LGY1) Takeda global kinase panel
Ephrin type-B receptor 2 = Ephrin type-B receptor 2 (Homo sapiens, UniProt P29323); assay: EphB2(EPB2LGY1) Takeda global kinase panel
[29] = molecular target: Tyrosine-protein kinase BTK (Homo sapiens, UniProt Q06187); assay: BTK(BTK1CGF1) Takeda global kinase panel
[30] = molecular target: Protein kinase C iota type (Homo sapiens, UniProt P41743); assay: PKCiota(PRKILGRD) Takeda global kinase panel
Ephrin type-A receptor 6 = Ephrin type-A receptor 6 (Homo sapiens, UniProt Q9UF33); assay: EphA6(EPA6LGI5) Takeda global kinase panel
Sequence of Ephrin type-A receptor 6 (Q9UF33 whole entry): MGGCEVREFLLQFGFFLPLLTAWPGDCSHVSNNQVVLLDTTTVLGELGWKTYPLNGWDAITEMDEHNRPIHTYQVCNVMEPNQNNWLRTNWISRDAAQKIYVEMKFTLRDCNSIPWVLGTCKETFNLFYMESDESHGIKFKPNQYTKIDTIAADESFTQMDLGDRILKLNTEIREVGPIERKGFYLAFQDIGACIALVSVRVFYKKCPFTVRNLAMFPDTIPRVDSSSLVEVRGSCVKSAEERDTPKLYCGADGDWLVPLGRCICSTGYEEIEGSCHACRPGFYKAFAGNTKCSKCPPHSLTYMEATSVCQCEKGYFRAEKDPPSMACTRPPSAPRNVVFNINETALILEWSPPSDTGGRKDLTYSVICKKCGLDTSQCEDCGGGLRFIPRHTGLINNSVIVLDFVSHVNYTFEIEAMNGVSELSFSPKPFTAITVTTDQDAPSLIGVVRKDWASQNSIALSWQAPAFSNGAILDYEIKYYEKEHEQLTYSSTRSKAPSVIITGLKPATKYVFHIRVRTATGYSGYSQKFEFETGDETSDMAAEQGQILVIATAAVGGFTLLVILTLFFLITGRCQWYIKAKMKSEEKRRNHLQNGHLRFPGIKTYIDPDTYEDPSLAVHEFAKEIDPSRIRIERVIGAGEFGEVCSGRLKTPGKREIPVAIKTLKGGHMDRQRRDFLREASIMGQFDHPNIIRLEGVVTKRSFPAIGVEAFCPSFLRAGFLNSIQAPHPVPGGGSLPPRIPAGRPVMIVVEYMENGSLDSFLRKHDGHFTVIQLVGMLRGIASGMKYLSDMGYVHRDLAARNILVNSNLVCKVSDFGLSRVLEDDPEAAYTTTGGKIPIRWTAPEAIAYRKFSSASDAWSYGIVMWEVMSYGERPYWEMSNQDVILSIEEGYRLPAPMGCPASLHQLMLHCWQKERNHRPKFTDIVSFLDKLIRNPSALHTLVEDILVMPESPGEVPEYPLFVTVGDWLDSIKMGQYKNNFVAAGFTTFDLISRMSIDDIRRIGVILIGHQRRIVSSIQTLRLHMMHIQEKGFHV

[31] = molecular target: Vascular endothelial growth factor receptor 1 (Homo sapiens, UniProt P17948); assay: FLT1(FLT1LGC5) Takeda global kinase panel
Sequence of Vascular endothelial growth factor receptor 1 (P17948 whole entry): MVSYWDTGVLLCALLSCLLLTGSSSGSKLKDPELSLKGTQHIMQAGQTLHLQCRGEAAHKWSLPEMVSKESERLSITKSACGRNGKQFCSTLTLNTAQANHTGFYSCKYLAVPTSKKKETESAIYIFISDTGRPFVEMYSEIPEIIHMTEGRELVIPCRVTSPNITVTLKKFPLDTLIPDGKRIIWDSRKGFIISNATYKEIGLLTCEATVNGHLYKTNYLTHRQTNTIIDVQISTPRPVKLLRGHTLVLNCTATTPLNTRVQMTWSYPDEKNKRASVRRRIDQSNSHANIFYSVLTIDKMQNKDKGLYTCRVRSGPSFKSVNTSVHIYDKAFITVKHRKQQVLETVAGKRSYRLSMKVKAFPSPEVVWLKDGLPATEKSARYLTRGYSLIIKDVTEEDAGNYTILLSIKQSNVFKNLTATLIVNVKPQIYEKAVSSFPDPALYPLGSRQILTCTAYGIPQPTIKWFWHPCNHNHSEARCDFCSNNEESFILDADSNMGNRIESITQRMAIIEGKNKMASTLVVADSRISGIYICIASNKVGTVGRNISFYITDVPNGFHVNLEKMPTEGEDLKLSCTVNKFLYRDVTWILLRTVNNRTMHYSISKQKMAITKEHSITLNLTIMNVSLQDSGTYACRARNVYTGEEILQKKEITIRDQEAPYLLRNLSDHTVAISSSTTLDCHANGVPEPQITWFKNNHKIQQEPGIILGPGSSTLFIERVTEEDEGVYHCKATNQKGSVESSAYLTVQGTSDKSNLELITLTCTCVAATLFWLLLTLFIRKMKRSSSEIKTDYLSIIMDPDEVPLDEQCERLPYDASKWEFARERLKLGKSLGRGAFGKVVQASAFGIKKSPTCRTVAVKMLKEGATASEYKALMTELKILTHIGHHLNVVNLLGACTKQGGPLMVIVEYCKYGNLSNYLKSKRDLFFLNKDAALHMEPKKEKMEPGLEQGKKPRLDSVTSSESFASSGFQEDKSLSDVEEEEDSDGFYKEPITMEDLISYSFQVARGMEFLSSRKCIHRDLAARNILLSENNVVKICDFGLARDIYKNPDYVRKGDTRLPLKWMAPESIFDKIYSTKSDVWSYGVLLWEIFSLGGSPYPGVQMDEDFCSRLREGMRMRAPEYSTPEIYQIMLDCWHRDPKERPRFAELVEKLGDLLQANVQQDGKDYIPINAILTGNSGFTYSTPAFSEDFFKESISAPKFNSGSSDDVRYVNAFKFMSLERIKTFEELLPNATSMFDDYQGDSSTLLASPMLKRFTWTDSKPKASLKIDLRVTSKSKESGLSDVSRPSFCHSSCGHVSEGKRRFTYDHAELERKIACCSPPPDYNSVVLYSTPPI

[32] = molecular target: Myosin light chain kinase family member 4 (Homo sapiens, UniProt Q86YV6); assay: SgK085(SG85LGY1) Takeda global kinase panel
Sequence of Myosin light chain kinase family member 4 (Q86YV6 whole entry): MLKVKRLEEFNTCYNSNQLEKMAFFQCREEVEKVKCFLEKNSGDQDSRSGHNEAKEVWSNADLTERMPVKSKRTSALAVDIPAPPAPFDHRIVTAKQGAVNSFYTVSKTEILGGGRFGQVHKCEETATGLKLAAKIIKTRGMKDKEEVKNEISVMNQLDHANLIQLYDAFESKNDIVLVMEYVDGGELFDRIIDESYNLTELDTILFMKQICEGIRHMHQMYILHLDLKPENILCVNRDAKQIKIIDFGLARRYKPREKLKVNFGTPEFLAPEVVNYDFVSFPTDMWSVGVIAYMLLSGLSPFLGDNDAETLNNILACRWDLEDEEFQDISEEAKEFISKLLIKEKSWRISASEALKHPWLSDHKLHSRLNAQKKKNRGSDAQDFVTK

TGF-beta receptor type-2 = TGF-beta receptor type-2 (Homo sapiens, UniProt P37173); assay: TGFbetaR2(TGF2LGY1) Takeda global kinase panel
[33] = molecular target: Receptor-type tyrosine-protein kinase FLT3 (Homo sapiens, UniProt P36888); assay: FLT3(FLT3MGE1) Takeda global kinase panel
[34] = molecular target: Cyclin-dependent kinase 8 (Homo sapiens, UniProt P49336); assay: CDK8(CDK8CGS1) Takeda global kinase panel
Aurora kinase A = Aurora kinase A (Homo sapiens, UniProt O14965); assay: AurA [Aur2(AURALGF1)] Takeda global kinase panel
[35] = molecular target: Serine/threonine-protein kinase Chk1 (Homo sapiens, UniProt O14757); assay: CHK1(CHE1CGP1) Takeda global kinase panel
Rattus norvegicus = organism: Rattus norvegicus; assay: Inhibition of Thyroid Hormone at 10 µM in the Eurofins-Panlabs radioligand binding assay (Eurofins_assay_285900); assay type: protein assay; conditions: Compound concentration 10.0 uM
[36] = molecular target: Bone morphogenetic protein receptor type-2 (Homo sapiens, UniProt Q13873); assay: BMPR2(BMR2LGN1) Takeda global kinase panel
[37] = molecular target: Protein kinase C zeta type (Homo sapiens, UniProt Q05513); assay: PKCzeta(PRKZLGP1) Takeda global kinase panel
[38] = molecular target: Serine/threonine-protein kinase ICK (Homo sapiens, UniProt Q9UPZ9); assay: ICK(ICK1LGP1) Takeda global kinase panel
[39] = molecular target: Cytoplasmic tyrosine-protein kinase BMX (Homo sapiens, UniProt P51813); assay: Etk [BMX(BMX1CGF1)] Takeda global kinase panel
[40] = molecular target: Glutamate receptor ionotropic, kainate (Rattus norvegicus) (UniProt P22756+Q01812+P42260+P42264+Q63273); conditions: Compound concentration 10.0 uM

SMILES: CN1C(=O)[C@@H](N2CCc3cn(Cc4ccccc4)nc3C2=O)COc2ccccc21 [TP-030-1]
IC50 [1]: 1000 nM
IC50 [2]: 1000 nM
IC50 [3]: 1000 nM
IC50 [4]: 1000 nM
IC50 [5]: 1000 nM
IC50 [6]: 1000 nM
inhibition [7]: 3%
IC50 [8]: 1000 nM
IC50 [9]: 1000 nM
IC50 [10]: 1000 nM
IC50 (SRSF protein kinase 3): 1000 nM
IC50 [11]: 1000 nM
IC50 [12]: 1000 nM
inhibition [13]: 1%
IC50 [14]: 1000 nM
IC50 [15]: 1000 nM
IC50 [16]: 1000 nM
inhibition [17]: 7%
IC50 [18]: 1000 nM
inhibition [19]: 4%
IC50 [20]: 1000 nM
IC50 [21]: 1000 nM
IC50 [22]: 1000 nM
IC50 [23]: 1000 nM
IC50 [24]: 1000 nM
IC50 [25]: 1000 nM
IC50 [26]: 1000 nM
IC50 [27]: 1000 nM
IC50 [28]: 1000 nM
IC50 (Ephrin type-B receptor 2): 1000 nM
IC50 [29]: 1000 nM
IC50 [30]: 1000 nM
IC50 (Ephrin type-A receptor 6): 1000 nM
IC50 [31]: 1000 nM
IC50 [32]: 1000 nM
IC50 (TGF-beta receptor type-2): 1000 nM
IC50 [33]: 1000 nM
IC50 [34]: 1000 nM
IC50 (Aurora kinase A): 1000 nM
IC50 [35]: 1000 nM
inhibition (Rattus norvegicus): 24%
IC50 [36]: 1000 nM
IC50 [37]: 1000 nM
IC50 [38]: 1000 nM
IC50 [39]: 1000 nM
inhibition [40]: -2%

IC50 [1]: 1000 nM
IC50 [2]: 1000 nM
IC50 [3]: 1000 nM
IC50 [4]: 1000 nM
IC50 [5]: 1000 nM
IC50 [6]: 1000 nM
inhibition [7]: -8%
IC50 [8]: 1000 nM
IC50 [9]: 1000 nM
IC50 [10]: 1000 nM
IC50 (SRSF protein kinase 3): 1000 nM
IC50 [11]: 1000 nM
IC50 [12]: 1000 nM
inhibition [13]: -3%
IC50 [14]: 1000 nM
IC50 [15]: 1000 nM
IC50 [16]: 1000 nM
inhibition [17]: -2%
IC50 [18]: 1000 nM
inhibition [19]: -5%
IC50 [20]: 1000 nM
IC50 [21]: 1000 nM
IC50 [22]: 1000 nM
IC50 [23]: 1000 nM
IC50 [24]: 1000 nM
IC50 [25]: 1000 nM
IC50 [26]: 1000 nM
IC50 [27]: 1000 nM
IC50 [28]: 1000 nM
IC50 (Ephrin type-B receptor 2): 1000 nM
IC50 [29]: 1000 nM
IC50 [30]: 1000 nM
IC50 (Ephrin type-A receptor 6): 1000 nM
IC50 [31]: 1000 nM
IC50 [32]: 1000 nM
IC50 (TGF-beta receptor type-2): 1000 nM
IC50 [33]: 1000 nM
IC50 [34]: 1000 nM
IC50 (Aurora kinase A): 1000 nM
IC50 [35]: 1000 nM
inhibition (Rattus norvegicus): 21%
IC50 [36]: 1000 nM
IC50 [37]: 1000 nM
IC50 [38]: 1000 nM
IC50 [39]: 1000 nM
inhibition [40]: 7%
SMILES: CN1C(=O)[C@@H](N2CCc3cn(CC4CCS(=O)(=O)CC4)nc3C2=O)COc2ccccc21 [TP-030n]

Reference: ChEMBL document CHEMBL4507327 (2021)
